Where two headings read alike, the source gives them in different places.
Tests used:
EGFR-WT = EGFR-WT (Homo sapiens (Human), UniProt P00533); experiment: Omnia assay for potency assessment against EGFR (WT)
ITK = ITK (Homo sapiens (Human), UniProt Q08881); experiment: Omnia assay for potency assessment against active forms of ITK kinase; assay type: biochemical; details: [ITK]=10 nM, [ATP]=25, [Y6-Sox]=10 μM; read-out: ITK Inhibition
Procedure: [ITK]=10 nM, [ATP]=25 [Y6-Sox]=10 μM (ATP KMapp=33 μM).

BTK = BTK (Homo sapiens (Human), UniProt Q06187); experiment: Omnia assay for potency assessment against BTK; assay type: biochemical; details: [BTK]=5 nM, Omnia assay; read-out: BTK Inhibition (IC50)
Procedure: The modified BTK-optimized reagent conditions for the above protocol are:
[BTK]=5 nM, [ATP]=[…], [Y5-Sox]=[…] (ATP KMapp˜[…]).

[1] = read-out: EGFR (wild type inhibition), EGFR wild type

BTK, sequence (Q06187 whole entry): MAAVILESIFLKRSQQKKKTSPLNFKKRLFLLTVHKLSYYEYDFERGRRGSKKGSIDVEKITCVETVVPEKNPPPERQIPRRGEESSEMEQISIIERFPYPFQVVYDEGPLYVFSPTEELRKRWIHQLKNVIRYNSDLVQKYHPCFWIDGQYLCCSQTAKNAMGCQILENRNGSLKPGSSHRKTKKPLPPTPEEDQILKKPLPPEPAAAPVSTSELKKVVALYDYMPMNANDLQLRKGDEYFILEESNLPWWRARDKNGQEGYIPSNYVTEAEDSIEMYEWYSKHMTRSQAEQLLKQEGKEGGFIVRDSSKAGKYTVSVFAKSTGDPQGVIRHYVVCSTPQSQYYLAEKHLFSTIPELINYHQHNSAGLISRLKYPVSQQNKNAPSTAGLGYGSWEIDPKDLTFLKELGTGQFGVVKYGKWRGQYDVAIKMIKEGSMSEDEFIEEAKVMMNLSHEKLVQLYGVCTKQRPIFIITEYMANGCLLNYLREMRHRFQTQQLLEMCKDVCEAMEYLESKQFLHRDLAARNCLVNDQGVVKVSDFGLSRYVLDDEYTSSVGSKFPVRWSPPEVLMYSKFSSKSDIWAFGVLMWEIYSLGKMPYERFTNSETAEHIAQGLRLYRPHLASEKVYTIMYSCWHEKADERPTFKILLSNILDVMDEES
ITK, sequence (Q08881 whole entry): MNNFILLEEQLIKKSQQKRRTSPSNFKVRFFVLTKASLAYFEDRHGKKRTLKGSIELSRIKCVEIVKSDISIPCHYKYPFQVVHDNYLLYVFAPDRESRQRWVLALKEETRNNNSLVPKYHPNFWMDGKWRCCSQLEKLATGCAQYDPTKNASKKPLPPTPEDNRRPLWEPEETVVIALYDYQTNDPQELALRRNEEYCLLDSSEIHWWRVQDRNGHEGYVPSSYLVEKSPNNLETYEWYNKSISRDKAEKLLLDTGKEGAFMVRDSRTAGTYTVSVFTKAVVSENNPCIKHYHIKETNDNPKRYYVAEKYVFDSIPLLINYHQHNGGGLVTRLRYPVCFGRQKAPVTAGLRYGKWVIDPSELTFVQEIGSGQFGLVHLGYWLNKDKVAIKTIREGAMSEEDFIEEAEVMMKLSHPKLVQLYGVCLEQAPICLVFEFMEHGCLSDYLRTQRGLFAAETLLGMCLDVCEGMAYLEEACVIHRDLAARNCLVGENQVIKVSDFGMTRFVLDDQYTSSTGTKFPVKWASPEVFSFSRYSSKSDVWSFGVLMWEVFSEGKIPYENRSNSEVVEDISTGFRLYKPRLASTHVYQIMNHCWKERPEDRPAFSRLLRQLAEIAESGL

Row | Molecule | IC50 (EGFR-WT) [nM] | IC50 (ITK) [nM] | IC50 (BTK) [nM] | IC50 (EGFR-WT; [1]) [nM]
1 | C=CC(=O)Nc1cccc(Nc2nc(Nc3ccc(OCC(C)(C)O)c(F)c3)ncc2F)c1 [Compound I-315, N-(3-(5-fluoro-2-(3-fluoro-4-(2-hydroxy-2-methylpropoxy)phenylamino)pyrimidin-4-ylamino)phenyl)acrylamide] | 10 to 100 | 10 to 100 |  | 
2 | C=CC(=O)Nc1cccc(Nc2nc(Nc3cccc(OCCCS(C)(=O)=O)c3)ncc2F)c1 [Compound I-138, 4-(3-acrylamidophenylamino)-5-fluoro-2-(3-(3-(methylsulfonyl)propoxy)phenylamino)-pyrimidine] | 10 to 100 | 10 to 100 |  | 
3 | C=CC(=O)N1CCC[C@@H](Nc2nc(Nc3ccc(O[C@@H]4CCOC4)cc3)ncc2F)C1 [Compound I-348, 1-((R)-3-(5-fluoro-2-(4-((R)-tetrahydrofuran-3-yloxy)phenylamino)pyrimidin-4-ylamino)piperidin-1-yl)prop-2-en-1-one] | 10 to 100 |  | < 10 | 
4 | (E)-4-(dimethylamino)-N-(3-(5-methyl-4-(m-tolylamino)pyrimidin-2-ylamino)phenyl)but-2-enamide [Compound I-360] |  |  | < 10 | < 10
5 | C=CC(=O)N1CCC(Nc2nc(Nc3ccc(OC)nc3)ncc2F)C1 (centres unmarked) [Compound I-203, 1-(3-(5-fluoro-2-(6-methoxypyridin-3-ylamino)pyrimidin-4-ylamino)pyrrolidin-1-yl)prop-2-en-1-one] | 100 to 1000 |  | 10 to 100 | 
6 | C=CC(=O)Nc1ccc(Nc2nc(Nc3cccc(OC)c3)ncc2C(F)(F)F)cc1 [Compound I-236, N-(4-(5-trifluoromethyl-2-(3-methoxyphenylamino)pyrimidin-4-ylamino)phenyl)acrylamide] |  |  | 10 to 100 | 1000 to 10000
7 | C=CC(=O)N(C)Cc1ccc(Oc2nc(Nc3cccc(OCCCN4CCCC4=O)c3)ncc2F)cc1 [Compound I-111, N-(4-(5-fluoro-2-(3-(3-(2-oxopyrrolidin-1-yl)propoxy)phenylamino)pyrimidin-4-yloxy)benzyl)-N-methylacrylamide] | 100 to 1000 |  | < 10 | 
8 | C=CC(=O)Nc1cccc(Nc2nc(Nc3ccc(Cl)c(OC)c3)ncc2F)c1 [Compound I-74, N-(3-(5-fluoro-2-(4-chloro-3-methoxyphenylamino)pyrimidin-4-ylamino)phenyl)acrylamide] | 100 to 1000 |  | < 10 | 
9 | C=CC(=O)Nc1cccc(Nc2nc(Nc3cccnc3)ncc2F)c1 [Compound I-234, N-(3-(5-fluoro-2-(pyridin-3-ylamino)pyrimidin-4-ylamino)phenyl)acrylamide] |  |  | 1000 to 10000 | > 10000
10 | C=C(C)C(=O)Cc1cccc(Nc2nc(Nc3ccc(OCCOC)c(F)c3)ncc2F)c1 [Compound I-328, 1-(3-(5-fluoro-2-(3-fluoro-4-(2-methoxyethoxy)phenylamino)pyrimidin-4-ylamino)phenyl)-3-methylbut-3-en-2-one] |  |  | < 10 | < 10
11 | C=C(C#N)C(O)c1ccc(Nc2nc(Nc3ccc(OCCOC)c(F)c3)ncc2F)cc1 (centres unmarked) [Compound I-327, 2-((4-(5-fluoro-2-(3-fluoro-4-(2-methoxyethoxy)phenylamino)pyrimidin-4-ylamino)phenyl)(hydroxy)methyl)acrylonitrile] | 10 to 100 |  | < 10 | 
12 | C=CC(=O)N1CCOc2ccc(Nc3nc(Nc4ccc(OCCOC)cc4)ncc3F)cc21 [Compound I-141, 1-(6-(5-fluoro-2-(4-(2-methoxyethoxy)phenylamino)pyrimidin-4-ylamino)-2H-benzo[b][1,4]oxazin-4(3H)-yl)prop-2-en-1-one] | 10 to 100 |  | < 10 | 
13 | C=CC(=O)N1CCOc2ccc(Nc3ncc(F)c(Nc4ccc(OCc5ccccn5)c(Cl)c4)n3)cc21 [Compound I-343, 1-(6-(4-(3-chloro-4-(pyridine-2-ylmethoxy)phenylamino)-5-fluoropyrimidin-2-ylamino)-2H-benzo[b][1,4]oxazin-4(3H)-yl)prop-2-en-1-one] | 100 to 1000 |  | 10 to 100 | 
14 | C=CC(=O)N1CCC[C@H](Oc2nc(Nc3cccc(OC)c3)ncc2F)C1 [Compound I-179, (S)-1-(3-(5-fluoro-2-(3-methoxyphenylamino)pyrimidin-4-yloxy)piperidin-1-yl)prop-2-en-1-one] | > 10000 |  | 100 to 1000 | 
15 | Cc1cccc(Nc2nc(Nc3cccc(NC(=O)/C=C/CN4C[C@@H]5C[C@H]4CN5)c3)ncc2F)c1 [Compound I-101, (E)-4-((1S,4S)-2,5-diazabicyclo[2.2.1]heptan-2-yl)-N-(3-(5-fluoro-4-(m-tolylamino)pyrimidin-2-ylamino)phenyl)but-2-enamide] | 10 to 100 |  | 10 to 100 | 
16 | Cc1cccc(Nc2nc(Nc3cccc(NC(=O)/C=C/CN4C[C@@H](C)N[C@@H](C)C4)c3)ncc2F)c1 [Compound I-119, (E)-4-((3R,5S)-3,5-dimethylpiperazin-1-yl)-N-(3-(5-fluoro-4-(m-tolylamino)pyrimidin-2-ylamino)phenyl)but-2-enamide] | 100 to 1000 |  | 10 to 100 | 

Row | Molecule | IC50 (EGFR-WT) [nM] | IC50 (ITK) [nM] | IC50 (BTK) [nM] | IC50 (EGFR-WT; [1]) [nM]
17 | C#CCOc1cccc(Nc2ncc(F)c(Nc3cccc(C(=O)C=C(C)C)c3)n2)c1 [Compound I-211, 1-(3-(5-fluoro-2-(3-(prop-2-ynyloxy)phenylamino)pyrimidin-4-ylamino)phenyl)-3-methylbut-2-en-1-one] |  |  | 1000 to 10000 | 1000 to 10000
18 | C=CC(=O)Nc1cccc(Nc2nc(Nc3ccc(OCCOC)c(F)c3)ncc2C#N)c1 [Compound I-350, N-(3-(5-cyano-2-(3-fluoro-4-(2-methoxyethoxy)phenylamino)pyrimidin-4-ylamino)phenyl)acrylamide] |  |  | < 10 | < 10
19 | C=CC(=O)Nc1cccc(Nc2nc(Nc3ccccc3)ncc2C(=O)NC2CC2)c1 [Compound I-221, 4-(3-acrylamidophenylamino)-N-cyclopropyl-2-(phenylamino)pyrimidine-5-carboxamide] | 10 to 100 |  | 10 to 100 | 
20 | C=CC(=O)N1CCOc2ccc(Nc3ncc(F)c(Nc4ccc5c(c4)CC(=O)N5)n3)cc21 [Compound I-130, 5-(2-(4-acryloyl-3,4-dihydro-2H-benzo[b][1,4]oxazin-6-ylamino)-5-fluoropyrimidin-4-ylamino)indolin-2-one] | 10 to 100 |  | < 10 | 
21 | C=CC(=O)Nc1cccc(Nc2nc(Nc3ccc(OCCOC)cc3)ncc2C#N)c1 [Compound I-109, N-(3-(5-cyano-2-(4-(2-methoxyethoxy)phenylamino)pyrimidin-4-ylamino)phenyl)acrylamide] |  |  | < 10 | < 10
22 | C=CC(=O)N1CCC[C@H](Oc2nc(Nc3ccc(OC)nc3)ncc2F)C1 [Compound I-193, (S)-1-(3-(5-fluoro-2-(6-methoxypyridin-3-ylamino)pyrimidin-4-yloxy)piperidin-1-yl)prop-2-en-1-one] |  |  | 100 to 1000 | 1000 to 10000
23 | C=CC(=O)Nc1cccc(Nc2nc(Nc3cccc(OCCCN4CCCC4=O)c3)ncc2F)c1 [Compound I-144, 4-(3-acrylamidophenylamino)-5-fluoro-2-(3-(3-(2-oxopyrrolidin-1-yl)propoxy)phenylamino)-pyrimidine] |  |  | < 10 | < 10
24 | C=CC(=O)Nc1cccc(N(C)c2nc(Nc3ccccc3)ncc2C)c1 [Compound I-34, N-(3-(methyl(5-methyl-2-(phenylamino)pyrimidin-4-yl)amino)phenyl)acrylamide] | 100 to 1000 |  | 10 to 100 | 
25 | COc1cccc(Nc2ncc(C(F)(F)F)c(N[C@@H]3CCC[C@H](C(=O)C=C(C)C)C3)n2)c1 (stereo in doubt) [Compound I-213, 1-(3-(2-(3-Methoxy-phenylamino)-5-trifluoromethyl-pyrimidin-4-ylamino)-cyclohexyl)-3-methyl-but-2-en-1-one] | 100 to 1000 |  | > 10000 | 
26 | C=CC(=O)Nc1ccc(Nc2nc(Nc3ccc(OCCOC)c(F)c3)ncc2F)cc1 [Compound I-351, N-(4-(5-fluoro-2-(3-fluoro-4-(2-methoxyethoxy)phenylamino)pyrimidin-4-ylamino)phenyl)acrylamide] | 100 to 1000 |  | < 10 | 
27 | C=CC(=O)Nc1cccc(Nc2nc(Nc3ccc(OC(C)(C)CO)c(F)c3)ncc2F)c1 [Compound I-332, N-(3-(5-fluoro-2-(3-fluoro-4-(1-hydroxy-2-methylpropan-2-yloxy)phenylamino)pyrimidin-4-ylamino)phenyl)acrylamide] | 10 to 100 |  | < 10 | 
28 | C=CC(=O)Nc1cccc(Nc2nc(NCc3ccc(OC)cc3)ncc2F)c1 [Compound I-241, N-(3-(5-fluoro-2-(4-methoxybenzylamino)pyrimidin-4-ylamino)phenyl)acrylamide] |  |  | 1000 to 10000 | 1000 to 10000
29 | C=CC(=O)N(C)Cc1ccc(Oc2nc(Nc3cccc(OCCCS(C)(=O)=O)c3)ncc2F)cc1 [Compound I-136, N-(4-(5-fluoro-2-(3-(3-(methylsulfonyl)propoxy)phenylamino)pyrimidin-4-yloxy)benzyl)-N-methylacrylamide] | 100 to 1000 |  | < 10 | 
30 | CC(C)=CC(=O)c1ccc(Nc2nc(Nc3ccccc3)ncc2F)cc1 [Compound I-206, 1-(4-(5-fluoro-2-(phenylamino)pyrimidin-4-ylamino)phenyl)-3-methylbut-2-en-1-one] |  |  | > 10000 | 1000 to 10000
31 | C=CC(=O)Nc1cccc(Nc2nc(Nc3ccc(Cl)c(O[C@@H]4CCOC4)c3)ncc2F)c1 [Compound I-341, (R)—N-(3-(2-(4-chloro-3-(tetrahydrofuran-3-yloxy)phenylamino)-5-fluoropyrimidin-4-ylamino)phenyl)acrylamide] | 100 to 1000 |  | < 10 | 
